Reference: patent publication US9328106B2, “Cyclic ether pyrazol-4-yl-heterocyclyl-carboxamide compounds and methods of use” (Genentech, Inc., priority 2012, dated 2016)

biological target: PIM1 (Homo sapiens (Human), UniProt P11309); experiment: biochemical; assay type: biochemical; conditions: 20 pM PIM1, 1 μM FAM-peptide, 10 μM ATP, 90 minutes at room temperature; read-out: PIM1 LC3K (KI)
Sequence (P11309 whole entry): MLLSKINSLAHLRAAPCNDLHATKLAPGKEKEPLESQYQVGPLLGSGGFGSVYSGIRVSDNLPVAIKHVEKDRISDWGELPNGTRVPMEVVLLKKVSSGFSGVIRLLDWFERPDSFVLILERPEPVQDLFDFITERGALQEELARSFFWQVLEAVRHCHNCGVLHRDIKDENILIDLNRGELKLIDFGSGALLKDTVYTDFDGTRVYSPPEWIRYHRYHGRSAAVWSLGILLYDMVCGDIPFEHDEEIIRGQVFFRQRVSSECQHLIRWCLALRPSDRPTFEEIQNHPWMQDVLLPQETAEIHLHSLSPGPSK

Row | Structure (SMILES) | Ki
1 | Cn1ncc(NC(=O)c2csc(-c3c(F)cc(C4(O)CCOC4)cc3F)n2)c1[C@@H]1CC[C@@H](N)[C@H](F)CO1 (stereo partly drawn) [Example 215, N-(5-((2S,5R,6S)-5-amino-6-fluorooxepan-2-yl)-1-methyl-1H-pyrazol-4-yl)-2-(2,6-difluoro-4-(3-hydroxytetrahydrofuran-3-yl)phenyl)thiazole-4-carboxamide] | 0.00762 nM
2 | Cn1ncc(NC(=O)c2csc(-c3c(F)cc(C4CCOC4)cc3F)n2)c1[C@@H]1CC[C@@H](N)[C@H](F)CO1 (stereo partly drawn) [Example 216, N-(5-((2S,5R,6S)-5-amino-6-fluorooxepan-2-yl)-1-methyl-1H-pyrazol-4-yl)-2-(2,6-difluoro-4-(tetrahydrofuran-3-yl)phenyl)thiazole-4-carboxamide] | 0.011 nM
3 | Cn1ncc(NC(=O)c2csc(-c3c(F)cc(O[C@@H]4CCOC4)cc3F)n2)c1[C@@H]1CC[C@@H](N)[C@H](F)CO1 [Example 217] | 0.003 nM
4 | Cn1ncc(NC(=O)c2csc(-c3c(F)cc(O[C@H]4CCOC4)cc3F)n2)c1[C@@H]1CC[C@@H](N)[C@H](F)CO1 [Example 218] | 0.00224 nM
5 | CO[C@H]1CO[C@H](c2c(NC(=O)c3nc(-c4cccc(F)c4F)sc3N)cnn2C)CC[C@H]1N [Example 219, 5-amino-N-(5-((2S,5R,6R)-5-amino-6-methoxyoxepan-2-yl)-1-methyl-1H-pyrazol-4-yl)-2-(2,3-difluorophenyl)thiazole-4-carboxamide] | 0.05 nM
6 | CO[C@H]1CO[C@H](c2c(NC(=O)c3nc(-c4ccccc4C(F)(F)F)sc3N)cnn2C)CC[C@H]1N [Example 220, 5-amino-N-(5-((2S,5R,6R)-5-amino-6-methoxyoxepan-2-yl)-1-methyl-1H-pyrazol-4-yl)-2-(2-(trifluoromethyl)phenyl)thiazole-4-carboxamide] | 0.083 nM
7 | CO[C@H]1CO[C@H](c2c(NC(=O)c3csc(-c4c(F)cccc4F)n3)cnn2C)CC[C@H]1N [Example 221, N-(5-((2S,5R,6R)-5-amino-6-methoxyoxepan-2-yl)-1-methyl-1H-pyrazol-4-yl)-2-(2,6-difluorophenyl)thiazole-4-carboxamide] | 0.066 nM
8 | Cn1ncc(NC(=O)c2ccc(F)c(-c3cc(F)ccc3F)n2)c1[C@@H]1CC[C@@H](N)[C@H](F)CO1 [Example 222, N-(5-((2S,5R,6S)-5-amino-6-fluorooxepan-2-yl)-1-methyl-1H-pyrazol-4-yl)-6-(2,5-difluorophenyl)-5-fluoropicolinamide] | 0.161 nM
9 | Cn1ncc(NC(=O)c2ccc(F)c(-c3cccc(F)c3F)n2)c1[C@@H]1CC[C@@H](N)[C@H](F)CO1 [Example 223, N-(5-((2S,5R,6S)-5-amino-6-fluorooxepan-2-yl)-1-methyl-1H-pyrazol-4-yl)-6-(2,3-difluorophenyl)-5-fluoropicolinamide] | 0.083 nM
10 | Cn1ncc(NC(=O)c2csc(-c3c(F)cc(C4(O)COC4)cc3F)n2)c1[C@@H]1CC[C@@H](N)[C@H](F)CO1 [Example 224, N-(5-((2S,5R,6S)-5-amino-6-fluorooxepan-2-yl)-1-methyl-1H-pyrazol-4-yl)-2-(2,6-difluoro-4-(3-hydroxyoxetan-3-yl)phenyl)thiazole-4-carboxamide] | 0.035 nM
11 | Cn1ncc(NC(=O)c2csc(-c3c(F)cc(C4(O)CC4)cc3F)n2)c1[C@@H]1CC[C@@H](N)[C@H](F)CO1 [Example 225, N-(5-((2S,5R,6S)-5-amino-6-fluorooxepan-2-yl)-1-methyl-1H-pyrazol-4-yl)-2-(2,6-difluoro-4-(1-hydroxycyclopropyl)phenyl)thiazole-4-carboxamide] | 0.028 nM
12 | COc1ccc(-c2nc(C(=O)Nc3cnn(C)c3[C@@H]3CC[C@@H](N)[C@H](F)CO3)ccc2F)c(F)c1 [Example 226, N-(5-((2S,5R,6S)-5-amino-6-fluorooxepan-2-yl)-1-methyl-1H-pyrazol-4-yl)-5-fluoro-6-(2-fluoro-4-methoxyphenyl)picolinamide] | 0.036 nM
13 | Cn1ncc(NC(=O)c2ccc(F)c(-c3cccc(F)c3Cl)n2)c1[C@@H]1CC[C@@H](N)[C@H](F)CO1 [Example 227, N-(5-((2S,5R,6S)-5-amino-6-fluorooxepan-2-yl)-1-methyl-1H-pyrazol-4-yl)-6-(2-chloro-3-fluorophenyl)-5-fluoropicolinamide] | 0.57 nM

Next, values leading:

Row | Ki | Structure (SMILES)
14 | 0.017 nM | CC(O)c1cc(F)c(-c2nc(C(=O)Nc3cnn(C)c3[C@@H]3CC[C@@H](N)[C@H](F)CO3)ccc2F)c(F)c1 (stereo partly drawn) [Example 207, N-(5-((2S,5R,6S)-5-amino-6-fluorooxepan-2-yl)-1-methyl-1H-pyrazol-4-yl)-6-(2,6-difluoro-4-(1-hydroxyethyl)phenyl)-5-fluoropicolinamide]
15 | 0.012 nM | Cn1ncc(NC(=O)c2ccc(F)c(-c3c(F)cc(O)cc3F)n2)c1[C@@H]1CC[C@@H](N)[C@H](F)CO1 [Example 208, N-(5-((2S,5R,6S)-5-amino-6-fluorooxepan-2-yl)-1-methyl-1H-pyrazol-4-yl)-6-(2,6-difluoro-4-hydroxyphenyl)-5-fluoropicolinamide]
16 | 0.016 nM | Cn1ncc(NC(=O)c2ccc(F)c(-c3c(F)cc(OCCO)cc3F)n2)c1[C@@H]1CC[C@@H](N)[C@H](F)CO1 [Example 209, N-(5-((2S,5R,6S)-5-Amino-6-fluorooxepan-2-yl)-1-methyl-1H-pyrazol-4-yl)-6-(2,6-difluoro-4-(2-hydroxyethoxy)phenyl)-5-fluoropicolinamide]
17 | 0.053 nM | CC(O)c1cc(F)c(-c2nc(C(=O)Nc3cnn(C)c3[C@@H]3CC[C@@H](N)[C@@H](F)CO3)ccc2F)c(F)c1 (stereo partly drawn) [Example 210, N-(5-((2S,5R,6R)-5-amino-6-fluorooxepan-2-yl)-1-methyl-1H-pyrazol-4-yl)-6-(2,6-difluoro-4-(1-hydroxyethyl)phenyl)-5-fluoropicolinamide]
18 | 0.037 nM | COC(C)c1cc(F)c(-c2nc(C(=O)Nc3cnn(C)c3[C@@H]3CC[C@@H](N)[C@@H](F)CO3)ccc2F)c(F)c1 (stereo partly drawn) [Example 211, N-(5-((2S,5R,6R)-5-amino-6-fluorooxepan-2-yl)-1-methyl-1H-pyrazol-4-yl)-6-(2,6-difluoro-4-(1-methoxyethyl)phenyl)-5-fluoropicolinamide]
19 | 0.162 nM | Cn1ncc(NC(=O)c2ccc(F)c(-c3c(F)cc(C(O)(CO)CO)cc3F)n2)c1[C@@H]1CC[C@@H](N)[C@@H](F)CO1 [Example 212, N-(5-((2S,5R,6R)-5-amino-6-fluorooxepan-2-yl)-1-methyl-1H-pyrazol-4-yl)-6-(2,6-difluoro-4-(1,2,3-trihydroxypropan-2-yl)phenyl)-5-fluoropicolinamide]
20 | 0.078 nM | COC(c1cc(F)c(-c2nc(C(=O)Nc3cnn(C)c3[C@@H]3CC[C@@H](N)[C@H](F)CO3)ccc2F)c(F)c1)C1CC1 (stereo partly drawn) [Example 213, N-(5-((2S,5R,6S)-5-amino-6-fluorooxepan-2-yl)-1-methyl-1H-pyrazol-4-yl)-6-(4-(cyclopropyl(methoxy)methyl)-2,6-difluorophenyl)-5-fluoropicolinamide]
21 | 0.075 nM | Cn1ncc(NC(=O)c2ccc(F)c(-c3c(F)cc(C(CO)CO)cc3F)n2)c1[C@@H]1CC[C@@H](N)[C@H](F)CO1 [Example 214, N-(5-((2S,5R,6S)-5-amino-6-fluorooxepan-2-yl)-1-methyl-1H-pyrazol-4-yl)-6-(4-(1,3-dihydroxypropan-2-yl)-2,6-difluorophenyl)-5-fluoropicolinamide]
